Data taken from the NIST ThermoML archive (doi:10.1016/j.jct.2007.03.012).

Details: Liquid, Bellows volumetry

CCC [propane]
mass density [kg/m3]
Details | 280 K | 300 K | 320 K | 340 K | 360 K | 380 K | 400 K | 420 K | 440 K
1000 kPa | 520.5 | 489.81 | – | – | – | – | – | – | –
2000 kPa | 522.64 | 492.87 | 457.48 | – | – | – | – | – | –
3000 kPa | 524.74 | 495.95 | 462.23 | 418.14 | – | – | – | – | –
5000 kPa | 528.56 | 501.37 | 470.53 | 433.26 | 380.9 | – | – | – | –
10000 kPa | 537.44 | 512.99 | 486.59 | 457.48 | 424.08 | 384.1 | 334.74 | – | –
20000 kPa | 551.94 | 530.94 | 509.27 | 486.91 | 463.3 | 438.22 | 411.69 | 384.77 | 357.43
30000 kPa | 563.74 | 544.91 | 525.89 | 506.87 | 487.16 | 466.67 | 445.87 | 425.47 | 405.22
40000 kPa | 573.78 | 556.1 | 539.36 | 522.28 | 505.03 | 487.15 | 469.1 | 451.66 | 434.68
50000 kPa | 582.55 | 566.32 | 550.64 | 534.97 | 519.45 | 503.08 | 486.87 | 471.39 | 456.37
60000 kPa | 590.49 | 575.16 | 560.7 | 545.94 | 531.56 | 516.47 | 501.44 | 487.29 | 473.51
70000 kPa | 597.67 | 583.22 | 569.45 | 555.7 | 542.12 | 527.94 | 513.89 | 500.74 | 488.02
80000 kPa | 604.54 | 590.34 | 577.41 | 564.27 | 551.67 | 538.06 | 524.67 | 512.43 | 500.46
90000 kPa | 610.6 | 597.08 | 584.63 | 572.21 | 560.11 | 547.06 | 534.43 | 522.77 | 511.55
100000 kPa | 616.37 | 603.47 | 591.38 | 579.45 | 568.02 | 555.29 | 543.41 | 532.04 | 521.4
120000 kPa | 627.11 | 614.69 | 603.54 | 592.54 | 581.93 | 570.05 | 558.91 | 548.04 | 538.39
140000 kPa | 636.51 | 624.98 | 614.39 | 603.89 | 593.99 | 582.94 | 572.19 | 562.28 | 553.07
160000 kPa | 645.22 | 634.04 | 624.07 | 614.28 | 604.85 | 594.15 | 583.93 | 574.66 | 565.84
180000 kPa | 653.38 | 642.55 | 632.92 | 623.6 | 614.61 | 604.41 | 594.64 | 585.51 | 577.32
200000 kPa | 660.82 | 650.24 | 641.18 | 632.17 | 623.73 | 613.68 | 604.15 | 595.61 | 587.63
